In US4017632A, “Phenoxyacetic acid derivatives” (Centre European de Recherches Pharmacologiques C.E.R.P.H.A., priority 1975, dated 1977):

Columns and labels:
[1] = tested on: urinary excretion and clearance of uric acid; assay: Uricosuric activity in the phosphate-mannitol infused mongrel dog (renal clearance); assay type: in vivo
Experimental: The uricosuric activity of the compound of example 1 was further studied.
The uricosuric activity is determined by intravenous administration of a test compound to the phosphate-mannitol infused mongrel dog as a rapid injection at doses of 5 or 15 mg/kg. Renal clearance studies are compared against control experiments conducted in the same dogs. The urate clearance is calculated from the plasma and urinary concentrations. […] For example, compound of example 1 at a dose of 5 mg/kg i.v. increased urate excretion as a percentage of glomerular filtration rate from a value of 27% up to 40% and at a dose of 15 mg/kg i.v. increased it from 28% up to 74%.

[2] = tested on: retention of phenol red in the circulation; assay: Uricosuric activity: retention of phenol red in the circulation of the rat; assay type: in vivo; conditions: 100 mg/kg per os; for % of retention (phenol red), 15 mn: 15 min after phenol red injection; for % of retention (phenol red), 30 mn: 30 min after phenol red injection; for % of retention (phenol red), 45 mn: 45 min after phenol red injection; for % of retention (phenol red), 60 mn: 60 min after phenol red injection
Experimental: This activity was determined by the ability of the compounds to cause retention of phenol red in the circulation of the rat, method described by
Scarborough h. c. and M. C. KINNEY G. R. --
The products were administered one hour before phenol red injection to batches of 5 rats of 250-280 g; anesthetized with ether, the animals received an I.V. injection of 1 cm3 of a 1% phenol red solution. Blood samplings were made 15, 30, 45 and 60 minutes after injection. The pink colour develop after addition to the plasma of an N/10 aqueous solution of sodium hydroxide.
For instance the compounds of examples 5 and 1, and benziodarone give the following results for a dosis of 100 mg/kg per os.

diuresis = assay: Diuretic activity in mice; assay type: in vivo
Experimental: The activity is determined on mice. The ratio R of the mean values of diuresis obtained for the treated animals to the mean values for control animals are determined.

[3] = Acute toxicity per os in mice; conditions: mouse, in vivo, po; for LD50 at 48 h: male mice (Swiss C.D), per os, mortality after 48 hours, read-out: LD 50 per os
Experimental: The compounds were administered in the usual way to lots of 10 male mice (Swiss C.D) of average weight 20 g. Mortality was assessed after 48 hours for toxicity per os.

SMILES: O=C(O)COc1ccc(C(O)c2cccs2)c(Cl)c1Cl (centres unmarked) [Example 1, 2,3-dichloro-4-(2-thienyl-hydroxy-methyl)-phenoxy-acetic acid]
- urate excretion as a percentage of glomerular filtration rate ([1]; 5 mg/kg i.v., increased from a value of 27%): 40%
- urate excretion as a percentage of glomerular filtration rate ([1]; 15 mg/kg i.v., increased from 28%): 74%
- % of retention (phenol red), 15 mn [2]: 51%
- % of retention (phenol red), 30 mn [2]: 44%
- % of retention (phenol red), 45 mn [2]: 31%
- % of retention (phenol red), 60 mn [2]: 28%
- ratio R of mean diuresis of treated animals to control animals (diuresis; 100 mg/kg P.O.): 1.6
- LD50 at 48 h [3]: 1000 mg/kg

SMILES: O=C(O)COc1c(Br)cc(C(O)c2cccs2)cc1Br (centres unmarked) [Example 5, 2,6-dibromo-4-(2-thienyl-hydroxy-methyl)-phenoxy-acetic acid]
- % of retention (phenol red), 15 mn [2]: 68%
- % of retention (phenol red), 30 mn [2]: 123%
- % of retention (phenol red), 45 mn [2]: 105%
- % of retention (phenol red), 60 mn [2]: 58%
- LD50 at 48 h [3]: > 1000 mg/kg

SMILES: CCc1oc2ccccc2c1C(=O)c1cc(I)c(O)c(I)c1 [benziodarone, reference compound]
- % of retention (phenol red), 15 mn [2]: 37%
- % of retention (phenol red), 30 mn [2]: 50%
- % of retention (phenol red), 45 mn [2]: 53%
- % of retention (phenol red), 60 mn [2]: 18%
- LD50 at 48 h [3]: 1400 mg/kg

SMILES: C=C(CC)C(=O)c1ccc(OCC(=O)O)c(Cl)c1Cl [ethacrynic acid, reference compound]
- ratio R of mean diuresis of treated animals to control animals (diuresis; 20 mg/kg P.O.): 2.4
- LD50 ([3]; P.O., ethacrynic acid, given in the diuretic activity section, read-out: DL 50 P.O.): 600 mg/kg
